Among the data in US20230135729A1, “COMPOUND WITH ANTI-SPORE ACTIVITY AND PHARMACEUTICAL COMPOSITION THEREOF” (priority 2020, published 2023) are MIC values, retold here.

What all share (type): cell-based
Test [1] deals with spores of ATCC 630 strain. Briefly: Inhibition of germination of C. difficile spores (MIC), strain ATCC 630. Conditions: Clostridioides difficile, ATCC630, 1 h, read-out: MIC (minimum concentration that completely inhibits spore germination). In short, it runs like this: (§1)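 Spores heat-activated for 30 min at 65° C and washed, then preincubated with compound (10 mM DMSO stock) in BHIS at 37° C. Germination was triggered with sodium taurocholate, and OD580 was read each minute for 60 min. Inhibition = 100% − germination rate, from final vs initial OD relative to germinant-only controls.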

Test [2] has as its system spores of ATCC 43255 strain. Briefly: Inhibition of germination of C. difficile spores (MIC), strain ATCC 43255. The following applies: Clostridioides difficile, ATCC43255, 1 h, read-out: MIC (minimum concentration that completely inhibits spore germination). Put shortly: as §1
Test [3] has as its system spores of ATCC BBA1870 strain. The experiment in a line: Inhibition of germination of C. difficile spores (MIC), strain ATCC BBA1870. The following applies: Clostridioides difficile, ATCCBBA1870STRAIN, 1 h, read-out: MIC (minimum concentration that completely inhibits spore germination). In short, it runs like this:
as §1

Where [4] appears, read: strain 630, sodium taurocholate as germinant, BHIS medium, 37° C., OD580 for 60 min.
Where [5] appears, read: strain 43255, sodium taurocholate as germinant, BHIS medium, 37° C., OD580 for 60 min.
Setting [6] is: strain 1870, sodium taurocholate as germinant, BHIS medium, 37° C., OD580 for 60 min.

Values after ≈ are worked out from the molar mass of the structure shown. Read-outs that look alike come from different tables or passages of the source. Some results are limits rather than exact numbers.

As to `CC[C@@H](NC(=O)C[C@@H](C)[C@H]1CC[C@H]2[C@@H]3C(=O)C[C@@H]4C[C@H](O)CC[C@]4(C)[C@H]3CC[C@]12C)c1ccc(Cl)s1` [Compound I-149], the MIC in test [1] (setting [4]), in test [2] (setting [5]) and in test [3] (setting [6]) was 2 µM (≈ 1.07 µg/mL) in each case.

As to `CC[C@@H](NC(=O)C[C@@H](C)[C@H]1CC[C@H]2[C@@H]3C(=O)C[C@@H]4CC(=O)CC[C@]4(C)[C@H]3CC[C@]12C)c1ccc(S(=O)(=O)O)s1` [Compound I-74], the MIC in test [1] (setting [4]), in test [2] (setting [5]) and in test [3] (setting [6]) was 16 µM (≈ 9.24 µg/mL) throughout.

On to `CC[C@@H](NC(=O)C[C@@H](C)[C@H]1CC[C@H]2[C@@H]3C(=O)C[C@@H]4CC(=O)CC[C@]4(C)[C@H]3CC[C@]12C)c1ccc(C(=O)CCCCCCC(=O)O)s1` [Compound I-205], for which the MIC in test [1] (setting [4]), in test [2] (setting [5]) and in test [3] (setting [6]) was 128 µM (≈ 83.7 µg/mL) in each case.

Turning to `CC[C@H](NC(=O)C[C@@H](C)[C@H]1CC[C@H]2[C@@H]3C(=O)C[C@@H]4CC(=O)CC[C@]4(C)[C@H]3CC[C@]12C)c1ccc(Cl)s1` [Compound I-69], the MIC was 8 µM (≈ 4.26 µg/mL) in test [1] (setting [4]), 16 µM (≈ 8.52 µg/mL) in test [2] (setting [5]) and 8 µM (≈ 4.26 µg/mL) in test [3] (setting [6]).

Consider `CC[C@@H](NC(=O)C[C@@H](C)[C@H]1CC[C@H]2[C@@H]3[C@H](OC(C)=O)C[C@@H]4CC(=O)CC[C@]4(C)[C@H]3CC[C@]12C)c1ccc(Br)s1` [Compound I-176], for which the MIC in test [1] (setting [4]), in test [2] (setting [5]) and in test [3] (setting [6]) was 0.5 µM (≈ 0.31 µg/mL) each time.

Take `C[C@H](CC(=O)N[C@H](C)c1cccs1)[C@H]1CC[C@H]2[C@@H]3C(=O)C[C@@H]4CC(=O)CC[C@]4(C)[C@H]3CC[C@]12C` [Compound I-29]: the MIC in test [1] (setting [4]), in test [2] (setting [5]) and in test [3] (setting [6]) was 1 µM (≈ 0.484 µg/mL) in each case.

Take `CC(C)[C@@H](NC(=O)C[C@@H](C)[C@H]1CC[C@H]2[C@@H]3C(=O)C[C@@H]4CC(=O)CC[C@]4(C)[C@H]3CC[C@]12C)c1ccc(C(=O)CCCCCCC(=O)O)s1` [Compound I-206]: the MIC was found to be 128 µM (≈ 85.5 µg/mL) in test [1] (setting [4]), 128 µM (≈ 85.5 µg/mL) in test [2] (setting [5]) and 256 µM (≈ 171 µg/mL) in test [3] (setting [6]).

On to `C[C@H](CC(=O)NC(c1cccs1)C1CCC1)[C@H]1CC[C@H]2[C@@H]3C(=O)C[C@@H]4CC(=O)CC[C@]4(C)[C@H]3CC[C@]12C` (stereo partly drawn) [Compound I-57], for which the MIC was found to be 16 µM (≈ 8.38 µg/mL) in test [1] (setting [4]), 32 µM (≈ 16.8 µg/mL) in test [2] (setting [5]) and 32 µM (≈ 16.8 µg/mL) in test [3] (setting [6]).

`CC[C@@H](NC(=O)C[C@@H](C)[C@H]1CC[C@H]2[C@@H]3C(=O)C[C@@H]4CC(=O)CC[C@]4(C)[C@H]3CC[C@]12C)c1ccccc1` [Compound I-60]: the MIC in test [1], in test [2] and in test [3] was 2 µM (≈ 0.983 µg/mL) throughout.

On to `CC[C@@H](NC(=O)C[C@@H](C)[C@H]1CC[C@H]2[C@@H]3C(=O)C[C@@H]4CC(=O)CC[C@]4(C)[C@H]3CC[C@]12C)c1ccc(C(C)=O)s1` [Compound I-201], for which the MIC in test [1] (setting [4]), in test [2] (setting [5]) and in test [3] (setting [6]) was 32 µM (≈ 17.3 µg/mL) each time.

Consider `CC(C)[C@H](NC(=O)C[C@@H](C)[C@H]1CC[C@H]2[C@@H]3[C@H](OS(=O)(=O)O)C[C@@H]4CC(=O)CC[C@]4(C)[C@H]3CC[C@]12C)c1ccc(Br)s1` [Compound I-114], for which the MIC in test [1] (setting [4]), in test [2] (setting [5]) and in test [3] (setting [6]) was > 256 µM each time.

`CCC(NC(=O)C[C@@H](C)[C@H]1CC[C@H]2[C@@H]3[C@H](O)C[C@@H]4CC(=O)CC[C@]4(C)[C@H]3CC[C@]12C)c1ccc(Cl)s1` (stereo partly drawn) [Compound I-86]: the MIC in test [1] (setting [4]), in test [2] (setting [5]) and in test [3] (setting [6]) was 0.5 µM (≈ 0.267 µg/mL) in each case.

Turning to `C[C@H](NC(=O)C[C@@H](C)[C@H]1CC[C@H]2[C@@H]3C(=O)C[C@@H]4CC(=O)CC[C@]4(C)[C@H]3CC[C@]12C)c1cccs1` [Compound I-28], the MIC in test [1] (setting [4]), in test [2] (setting [5]) and in test [3] (setting [6]) was > 256 µM throughout.

With `CC(C)[C@@H](NC(=O)C[C@@H](C)[C@H]1CC[C@H]2[C@@H]3[C@H](O)C[C@@H]4CC(=O)CC[C@]4(C)[C@H]3C[C@H](O)[C@]12C)c1ccc(Br)s1` [Compound I-166], the MIC in test [1] (setting [4]) is 32 µM (≈ 19.5 µg/mL); in test [2] (setting [5]) it was 32 µM (≈ 19.5 µg/mL); in test [3] (setting [6]), 64 µM (≈ 39 µg/mL).

For `CC[C@@H](NC(=O)C[C@@H](C)[C@H]1CC[C@H]2[C@@H]3[C@H](OC(=O)CCCCCCC(=O)O)C[C@@H]4CC(=O)CC[C@]4(C)[C@H]3CC[C@]12C)c1ccc(Cl)s1` [Compound I-187], the MIC in test [1] (setting [4]), in test [2] (setting [5]) and in test [3] (setting [6]) was 0.125 µM (≈ 0.0863 µg/mL) in each case.

Consider `C[C@H](CC(=O)NCc1ccco1)[C@H]1CC[C@H]2[C@@H]3C(=O)C[C@@H]4C[C@H](O)CC[C@]4(C)[C@H]3CC[C@]12C` [Compound I-13], for which the MIC in test [1] (setting [4]), in test [2] (setting [5]) and in test [3] (setting [6]) was 16 µM (≈ 7.29 µg/mL) throughout.

Regarding `CC(C)[C@H](NC(=O)C[C@@H](C)[C@H]1CC[C@H]2[C@@H]3C(=O)C[C@@H]4CC(=O)CC[C@]4(C)[C@H]3CC[C@]12C)c1ccc(Cl)s1` [Compound I-76], the MIC in test [1] (setting [4]), in test [2] (setting [5]) and in test [3] (setting [6]) was > 256 µM each time.

Take `CC[C@H](NC(=O)C[C@@H](C)[C@H]1CC[C@H]2[C@@H]3C(=O)C[C@@H]4CC(=O)CC[C@]4(C)[C@H]3CC[C@]12C)c1ccc(Br)s1` [Compound I-71]: the MIC in test [1] (setting [4]) is 16 µM (≈ 9.23 µg/mL); in test [2] (setting [5]), 16 µM (≈ 9.23 µg/mL); in test [3] (setting [6]) it was 32 µM (≈ 18.5 µg/mL).

With `CC(NC(=O)C[C@@H](C)[C@H]1CC[C@H]2[C@@H]3C(=O)C[C@@H]4CC(=O)CC[C@]4(C)[C@H]3CC[C@]12C)c1ccccc1` (stereo partly drawn) [Compound I-23], the MIC came to 2 µM (≈ 0.955 µg/mL) in test [1] (setting [4]), 2 µM (≈ 0.955 µg/mL) in test [2] (setting [5]) and 4 µM (≈ 1.91 µg/mL) in test [3] (setting [6]).

As for `CC(C)[C@@H](NC(=O)C[C@@H](C)[C@H]1CC[C@H]2[C@@H]3C(=O)C[C@@H]4CC(=O)CC[C@]4(C)[C@H]3CC[C@]12C)c1ccc(N(C)C)s1` [Compound I-204], the MIC in test [1], in test [2] and in test [3] was 32 µM (≈ 17.8 µg/mL) each time.

With `CC(C)[C@@H](NC(=O)C[C@@H](C)[C@H]1CC[C@H]2[C@@H]3[C@H](OC(=O)CCCCCCC(=O)O)C[C@@H]4CC(=O)CC[C@]4(C)[C@H]3CC[C@]12C)c1ccc(Cl)s1` [Compound I-189], the MIC in test [1] (setting [4]) was determined as 0.125 µM (≈ 0.0881 µg/mL); in test [2] (setting [5]), 0.25 µM (≈ 0.176 µg/mL); in test [3] (setting [6]), 0.25 µM (≈ 0.176 µg/mL).

As to `C[C@H](CC(=O)NCc1ccccn1)[C@H]1CC[C@H]2[C@@H]3C(=O)C[C@@H]4CC(=O)CC[C@]4(C)[C@H]3CC[C@]12C` [Compound I-65], the MIC in test [1] (setting [4]), in test [2] (setting [5]) and in test [3] (setting [6]) was 128 µM (≈ 59.5 µg/mL) in each case.

With `CC[C@@H](NC(=O)C[C@@H](C)[C@H]1CC[C@H]2[C@@H]3C(=O)C[C@@H]4CC(=O)CC[C@]4(C)[C@H]3CC[C@]12C)c1ccc(Cl)s1` [Compound I-70], the MIC in test [1] (setting [4]) turned out to be 0.25 µM (≈ 0.133 µg/mL); in test [2] (setting [5]) it was 0.5 µM (≈ 0.266 µg/mL); in test [3] (setting [6]) it was 0.25 µM (≈ 0.133 µg/mL).

As for `CC(C)[C@@H](NC(=O)C[C@@H](C)[C@H]1CC[C@H]2[C@@H]3CC[C@@H]4C[C@H](O)CC[C@]4(C)[C@H]3CC[C@]12C)c1ccc(Br)s1` [Compound I-148], the MIC in test [1] (setting [4]), in test [2] (setting [5]) and in test [3] (setting [6]) was 16 µM (≈ 9.26 µg/mL) each time.

On to `CC[C@@H](NC(=O)C[C@@H](C)[C@H]1CC[C@H]2[C@@H]3[C@H](OC(=O)CCCCCCC(=O)O)C[C@@H]4CC(=O)CC[C@]4(C)[C@H]3CC[C@]12C)c1ccc(Br)s1` [Compound I-188], for which the MIC in test [1] (setting [4]), in test [2] (setting [5]) and in test [3] (setting [6]) was 0.25 µM (≈ 0.184 µg/mL) each time.

For the compound `CCC(NC(=O)C[C@@H](C)[C@H]1CC[C@H]2[C@@H]3C(=O)C[C@@H]4CC(=O)CC[C@]4(C)[C@H]3CC[C@]12C)c1ccc(Cl)s1` (stereo partly drawn) [Compound I-68], the MIC in test [1] (setting [4]) turned out to be 1 µM (≈ 0.532 µg/mL); in test [2] (setting [5]) it was 2 µM (≈ 1.06 µg/mL); in test [3] (setting [6]) it was 1 µM (≈ 0.532 µg/mL).

Take `CC[C@@H](NC(=O)C[C@@H](C)[C@H]1CC[C@H]2[C@@H]3[C@H](OC(C)=O)CC4=CC(=O)CC[C@]4(C)[C@H]3CC[C@]12C)c1ccc(Br)s1` [I-155 -1]: the MIC in test [1] (setting [4]), in test [2] (setting [5]) and in test [3] (setting [6]) was 0.25 µM (≈ 0.155 µg/mL) in each case.

On to `CC(C)[C@@H](NC(=O)C[C@@H](C)[C@H]1CC[C@H]2[C@@H]3[C@H](OC(=O)CCC(=O)O)C[C@@H]4CC(=O)CC[C@]4(C)[C@H]3CC[C@]12C)c1ccc(Br)s1` [Compound I-182], for which the MIC in test [1] (setting [4]), in test [2] (setting [5]) and in test [3] (setting [6]) was 2 µM (≈ 1.39 µg/mL) in each case.
